In US12454525B2, “IL4I1 inhibitors and methods of use” (Merck Sharp & Dohme LLC, priority 2020, dated 2025):

Target: T1, recombinant IL4I1 (Homo sapiens, UniProt Q96RQ9)
T1 construct: purchased R&D Systems 5684-AO-020
T1 sequence (Q96RQ9 22-567): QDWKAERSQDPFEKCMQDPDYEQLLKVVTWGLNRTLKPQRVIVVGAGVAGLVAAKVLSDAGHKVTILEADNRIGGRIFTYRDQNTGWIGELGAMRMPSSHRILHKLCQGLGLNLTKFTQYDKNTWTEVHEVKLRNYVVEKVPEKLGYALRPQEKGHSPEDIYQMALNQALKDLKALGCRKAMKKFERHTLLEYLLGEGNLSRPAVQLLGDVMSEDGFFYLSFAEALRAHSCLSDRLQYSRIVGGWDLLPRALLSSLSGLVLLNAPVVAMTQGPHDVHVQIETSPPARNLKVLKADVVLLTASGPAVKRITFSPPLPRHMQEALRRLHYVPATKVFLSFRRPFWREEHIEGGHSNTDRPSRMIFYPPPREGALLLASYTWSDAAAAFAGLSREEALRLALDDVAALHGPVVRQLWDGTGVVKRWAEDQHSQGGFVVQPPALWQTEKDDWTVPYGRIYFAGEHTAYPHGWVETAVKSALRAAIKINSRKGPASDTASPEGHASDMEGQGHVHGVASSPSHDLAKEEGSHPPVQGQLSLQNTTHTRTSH
Experiment: IL4I1 Enzymatic Assay (Amplex Red/HRP coupled H2O2 detection)
Assay type: biochemical
Settings: 240 min; four-hour pre-incubation with compound; 1 nM IL4I1, 1 mM each Phe/Tyr/Trp; ten-point titration; fluorescence readout; read-out: Potency EC50 (nM) (240 min)
Protocol: Interleukin 4 inducible protein 1 (IL4I1) is an L-amino oxidase that catalyzes the oxidation of aromatic residues (Phe, Trp and Tyr): L-amino acid+H2O+O2→2-oxo acid+NH3+H2O2. Equal molar of H2O2 and the corresponding alpha-ketoacid are produced when IL4I1 and substrate are added. In this assay, the hydrogen peroxide generated by IL4I1 is then detected through a coupled reaction with Amplex Red (10-acetyl-3,7-dihydroxyphenoxazine) and […] (HRP) to produce Resorufin product that could be detected in the form of fluorescence signals. The assessment of the inhibitory effect of small molecules (EC50) on IL4I1 is measured by the effectiveness of the compounds to inhibit the production of H2O2.
Using this assay, the potency (EC50) of each compound was determined from a ten-point (1:3 serial dilution) titration curve using the following outlined procedure. To each well of a black flat-bottom Greiner (Cat #781076) 384 well-plate, 25 nL of compound (0.1% DMSO in final assay volume of 25 μL) was dispensed, followed by the addition of 12.5 μL of 1x assay buffer (50 mM Hepes 7.0 and 0.005% Tween20 (Sigma, Cat #P8341; low peroxide grade)) containing 2 nM of recombinant IL4I1 (R&D Systems, Cat #5684-AO-020). Plates were placed in an ambient temperature humidified chamber for a four-hour pre-incubation with compound. Subsequently, each reaction was initiated by the addition of 12.5 μL 1x assay buffer containing 2 mM of each aromatic amino acids (Phe/Tyr/Trp), 0.1 mM Amplex Red and 2 U/mL of HRP. The final reaction in each well of 25 μL consists of 1 nM of IL411, 1 mM of each residues (Phe, Tyr and Trp), 0.05 mM Amplex Red and 1 U/mL of HRP. It should be noted that the concentrations of Amplex Red and HRP used here are in excess such that the conversion of H2O2 to Resorufin product occurs instantaneously and non-rate limiting. Reactions were allowed to proceed for 120 minutes followed by fluorescence readout on a Spectramax with the following set parameters: 544 nm excitation/590 nm emission, 570 nm cutoff (EnVision is an alternative reader). Dose-response curves were generated by plotting percent effect (% product conversion; Y-axis) vs. Log10 compound concentrations (X-axis). EC50 values were calculated using a non-linear regression, four-parameters sigmoidal dose-response model and are shown in Table 16.

Row | SMILES | EC50 [nM]
1 | N#Cc1cc(Cn2c(=O)[nH]c3ccccc32)ccc1CN1CCCC1=O [Example 24, 5-((2-oxo-2,3-dihydro-1H-benzo[d]imidazol-1-yl)methyl)-2-((2-oxopyrrolidin-1-yl)methyl) benzonitrile] | 24
2 | O=C1CCCN1Cc1ncc(Cn2c(=O)[nH]c3ccccc32)cc1Cl [Example 25, 1-((5-chloro-6-((2-oxopyrrolidin-1-yl)methyl)pyridin-3-yl)methyl)-1,3-dihydro-2H-benzo[d]imidazol-2-one] | 47
3 | O=c1[nH]c2ccccc2n1Cc1ccc(CN2CCCS2(=O)=O)cc1 [Example 26, 1-(4-((1,1-dioxidoisothiazolidin-2-yl)methyl)benzyl)-1,3-dihydro-2H-benzo[d]imidazol-2-one] | 6
4 | O=c1[nH]c2ccccc2n1Cc1cccc(-c2nnco2)c1 [Example 27, 1-(3-(1,3,4-oxadiazol-2-yl)benzyl)-1,3-dihydro-2H-benzo[d]imidazol-2-one] | 7
5 | O=c1[nH]c2ccccc2n1Cc1ccc2c(c1)S(=O)(=O)CC2 [Example 28, 1-((1,1-dioxido-2,3-dihydrobenzo[b]thiophen-6-yl)methyl)-1,3-dihydro-2H-benzo[d]imidazol-2-one] | 33
6 | CNC(=O)c1cccc(Cn2c(=O)[nH]c3ccccc32)c1 [Example 29, N-methyl-3-[(2-oxo-2,3-dihydro-1H-benzimidazol-1-yl)methyl]benzamide] | 5
7 | O=c1[nH]c2ccccc2n1Cc1cc(C(F)F)cc(C(F)F)c1 [Example 30, 1-{[3,5-bis(difluoromethyl)phenyl]methyl}-1,3-dihydro-2H-benzimidazol-2-one] | 9
8 | C[C@@H]1NC(=O)O[C@H]1c1cccc(Cn2c(=O)[nH]c3ccccc32)c1 [Example 31, 1-({3-[(4S,5S)-4-methyl-2-oxo-1,3-oxazolidin-5-yl]phenyl}methyl)-1,3-dihydro-2H-benzimidazol-2-one] | 15
9 | CC(=O)Nc1ccc(Cn2c(=O)[nH]c3ccccc32)cc1F [Example 32, N-{2-fluoro-4-[(2-oxo-2,3-dihydro-1H-benzimidazol-1-yl)methyl]phenyl} acetamide] | 11
10 | CC1NC(=O)c2cc(Cn3c(=O)[nH]c4ccccc43)ccc21 (centres unmarked) [Example 33, 1-[(1-methyl-3-oxo-2,3-dihydro-1H-isoindol-5-yl)methyl]-1,3-dihydro-2H-benzimidazol-2-one] | 15
11 | O=c1[nH]c2ccccc2n1Cc1cnc2c(c1)CCC2 [Example 34, 1-[(6,7-dihydro-5H-cyclopenta[b]pyridin-3-yl)methyl]-1,3-dihydro-2H-benzimidazol-2-one] | 153
12 | N#CC1(c2cccc(Cn3c(=O)[nH]c4ccccc43)c2)CC1 [Example 35, 1-{3-[(2-oxo-2,3-dihydro-1H-benzimidazol-1-yl)methyl]phenyl} cyclopropane-1-carbonitrile] | 2
13 | O=C1CCCN1Cc1sc(Cn2c(=O)[nH]c3ccccc32)cc1Cl [Example 36, 1-((4-chloro-5-((2-oxopyrrolidin-1-yl)methyl)thiophen-2-yl)methyl)-1,3-dihydro-2H-benzo[d]imidazol-2-one] | 9
14 | CN(C)C(=O)Cc1ccc(Cn2c(=O)[nH]c3ccccc32)nc1 [Example 37, N,N-dimethyl-2-(6-((2-oxo-2,3-dihydro-1H-benzo[d]imidazol-1-yl)methyl)pyridin-3-yl)acetamide] | 1600
15 | CC(=O)NCc1sc(Cn2c(=O)[nH]c3ccccc32)cc1Cl [Example 38, N-((3-chloro-5-((2-oxo-2,3-dihydro-1H-benzo[d]imidazol-1-yl)methyl)thiophen-2-yl)methyl)acetamide] | 6
16 | CS(=O)(=O)NCc1sc(Cn2c(=O)[nH]c3ccccc32)cc1Cl [Example 39, N-((3-chloro-5-((2-oxo-2,3-dihydro-1H-benzo[d]imidazol-1-yl)methyl)thiophen-2-yl)methyl)methanesulfonamide] | 5

Row | SMILES | EC50 [nM]
17 | CC(=O)NCc1sc(Cn2c(=O)[nH]c3ccccc32)cc1C [Example 40, N-((3-methyl-5-((2-oxo-2,3-dihydro-1H-benzo[d]imidazol-1-yl)methyl)thiophen-2-yl)methyl)acetamide] | 7
18 | O=C1CCCN1Cc1ccc(Cn2c(=O)[nH]c3ccccc32)cn1 [Example 41, 1-((6-((2-oxopyrrolidin-1-yl)methyl)pyridin-3-yl)methyl)-1,3-dihydro-2H-benzo[d]imidazol-2-one] | 127
19 | N#Cc1n[nH]c2ccc(Cn3c(=O)[nH]c4ccccc43)cc12 [Example 42, 5-((2-oxo-2,3-dihydro-1H-benzo[d]imidazol-1-yl)methyl)-1H-indazole-3-carbonitrile] | 2
20 | O=C1N(Cc2ccc(Cn3c(=O)[nH]c4ccccc43)cc2)CCC1(F)F [Example 43, 1-(4-((3,3-difluoro-2-oxopyrrolidin-1-yl)methyl)benzyl)-1,3-dihydro-2H-benzo[d]imidazol-2-one] | 10
21 | CC(=O)NCc1ccc(Cn2c(=O)[nH]c3ccccc32)cc1Cl [Example 44, N-(2-chloro-4-((2-oxo-2,3-dihydro-1H-benzo[d]imidazol-1-yl)methyl)benzyl)acetamide] | 13
22 | CNC(=O)c1ccc(Cn2c(=O)[nH]c3ccccc32)s1 [Example 47, N-methyl-5-[(2-oxo-2,3-dihydro-1H-benzimidazol-1-yl)methyl]thiophene-2-carboxamide] | 3
23 | CNC(=O)c1cc(C)cc(Cn2c(=O)[nH]c3ccccc32)c1 [Example 48, N,3-dimethyl-5-((2-oxo-2,3-dihydro-1H-benzo[d]imidazol-1-yl)methyl)benzamide] | 16
24 | CC(=O)NCc1ccc(Cn2c(=O)[nH]c3ccccc32)cc1C [Example 49, N-(2-methyl-4-((2-oxo-2,3-dihydro-1H-benzo[d]imidazol-1-yl)methyl)benzyl)acetamide] | 10
25 | CC(=O)NCc1ccc(Cn2c(=O)[nH]c3ccccc32)c(C)c1 [Example 50, N-({3-methyl-4-[(2-oxo-2,3-dihydro-1H-benzimidazol-1-yl)methyl]phenyl}methyl)acetamide] | 9
26 | CC(=O)NC(C)(C)c1ccc(Cn2c(=O)[nH]c3ccccc32)cc1 [Example 51, N-(2-{4-[(2-oxo-2,3-dihydro-1H-benzimidazol-1-yl)methyl]phenyl}propan-2-yl)acetamide] | 54
27 | O=c1[nH]c2ccccc2n1Cc1ccc2c(c1)CCN2 [Example 52, 1-(indolin-5-ylmethyl)-1,3-dihydro-2H-benzo[d]imidazol-2-one] | 18
28 | Cn1cnnc1Cc1ccc(Cn2c(=O)[nH]c3ccccc32)cc1 [Example 53, 1-(4-((4-methyl-4H-1,2,4-triazol-3-yl)methyl)benzyl)-1,3-dihydro-2H-benzo[d]imidazol-2-one] | 12
29 | Cc1cc(Cn2c(=O)[nH]c3ccccc32)ccc1Cc1nnco1 [Example 54, 1-(4-((1,3,4-oxadiazol-2-yl)methyl)-3-methylbenzyl)-1,3-dihydro-2H-benzo[d]imidazol-2-one] | 7
30 | O=c1[nH]c2ccccc2n1Cc1ccc2c(c1)CCC2 [Example 55, 1-((2,3-dihydro-1H-inden-5-yl)methyl)-1,3-dihydro-2H-benzo[d]imidazol-2-one] | 0.8
31 | O=c1[nH]c2ccccc2n1Cc1cccnc1 [Example 56, 1-(pyridin-3-ylmethyl)-1,3-dihydro-2H-benzo[d]imidazol-2-one] | 2480
32 | CC(C)C1CC(Cn2c(=O)[nH]c3ccccc32)C1 (centres unmarked) [Example 57, 1-{[3-(propan-2-yl)cyclobutyl]methyl}-1,3-dihydro-2H-benzimidazol-2-one] | 3040
